Data as given in patent US8173698B2, “Environmental sensitive fluorogenic compounds and their application for singlet oxygen and protein detection” (priority 2003, dated 2012).

Tests used:
[1] = Dependence of fluorescence emission spectra on solvent; format: physicochemical; details: 1 μM; MeOH and aqueous buffer (50 mM Tris pH 7.5) vs DMSO; excitation 488 nm
Protocol: Solutions of Compound 5 (1 μM) were prepared in dimethylsulfoxide (DMSO), methanol (MeOH) and aqueous buffer (50 mM Tris pH 7.5). 2 mL portions of these solutions were transferred to 10 mm×10 mm quartz cuvettes and fluorescence emission spectra were recorded on a Hitachi F-4500 spectrofluorometer using identical instrument detection sensitivity settings. Excitation was at 488 nm in all cases. For the DMSO and MeOH solutions, the spectra were re-scanned after addition of a small amount of 0.1 M NaOH to the 2 mL solution sample. Results are plotted in FIG. 3A and FIG. 3B. FIG. 3B represents an approximately 10-fold enlargement on the y-axis of FIG. 3A.

[2] = target: bovine serum albumin (BSA) (Bos taurus, UniProt P02769); details: excitation 488 nm
bovine serum albumin (BSA), sequence (P02769 25-607): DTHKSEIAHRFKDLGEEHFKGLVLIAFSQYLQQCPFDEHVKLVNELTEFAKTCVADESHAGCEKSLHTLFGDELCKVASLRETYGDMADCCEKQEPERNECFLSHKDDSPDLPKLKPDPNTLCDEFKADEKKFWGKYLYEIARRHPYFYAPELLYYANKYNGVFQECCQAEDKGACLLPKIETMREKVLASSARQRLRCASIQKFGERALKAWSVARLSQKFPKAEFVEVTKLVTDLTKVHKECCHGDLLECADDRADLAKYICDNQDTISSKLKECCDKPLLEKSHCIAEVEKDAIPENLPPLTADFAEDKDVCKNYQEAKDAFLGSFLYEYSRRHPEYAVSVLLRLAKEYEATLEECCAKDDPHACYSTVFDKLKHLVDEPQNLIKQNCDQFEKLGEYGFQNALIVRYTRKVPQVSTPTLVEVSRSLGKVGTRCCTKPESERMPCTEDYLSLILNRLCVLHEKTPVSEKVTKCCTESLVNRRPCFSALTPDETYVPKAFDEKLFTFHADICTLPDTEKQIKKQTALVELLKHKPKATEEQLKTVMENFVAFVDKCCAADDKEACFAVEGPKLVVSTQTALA
Protocol: A solution of Compound 5 (1 μM) was prepared in phosphate-buffered saline (PBS) (50 mM phosphate buffer, pH 7.4, 150 mM NaCl). A 2 mL portion of this solution was transferred to a 10 mm×10 mm quartz cuvette. The fluorescence emission spectrum of the solution was recorded on a Hitachi F-4500 spectrofluorometer using excitation at 488 nm. 1 μL of a 4.5 mM solution of bovine serum albumin (30% (w/v) BSA (Sigma Chemical Co., St. Louis, Mo., catalog number A-7284)) was then added to the 2 mL of aqueous dye solution. The emission scan measurement was then repeated. Further measurements were made as the amount of added BSA was increased up to 4.5 μM.

CC(=O)O.Cc1c2ccccc2c(-c2cc3c(-c4ccccc4C(=O)O)c4cc(Cl)c(O)cc4oc-3cc2=O)c2ccccc12 [Compound 5]
fluorescence of the dye in MeOH and aqueous buffer relative to that in DMSO [1]: extremely weak fluorescence | change of fluorescence upon binding to BSA ([2]; 1 μM dye in PBS pH 7.4, BSA 0-5 μM): fluorescence enhancement | fluorescence emission peak ([2]; in PBS with BSA): 540 nm
